According to article PMC10916551, “NNMT/1‐MNA Promote Cell‐Cycle Progression of Breast Cancer by Targeting UBC12/Cullin‐1‐Mediated Degradation of P27 Proteins” (Advanced Science, 2023):

Target: T1, UBC12 (Homo sapiens, UniProt P61081)
T1 construct: gene UBE2M; amine-coupled to CM5 chip
T1 sequence (P61081 1-183): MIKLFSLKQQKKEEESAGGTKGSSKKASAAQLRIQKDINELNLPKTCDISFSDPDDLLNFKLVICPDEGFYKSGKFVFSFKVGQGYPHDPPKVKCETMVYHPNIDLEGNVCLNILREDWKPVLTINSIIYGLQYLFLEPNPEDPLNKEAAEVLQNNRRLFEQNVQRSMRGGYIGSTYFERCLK
Assay: SPR (Biacore T200), UBC12 immobilised on CM5 chip
Assay type: binding

Kd: 0.168 µM
SMILES: C[n+]1cccc(C(N)=O)c1 [1-MNA]
